Laboratory results as given in publication PMC8123306, “Identification of Novel Inhibitors of Escherichia coli DNA Ligase (LigA)” (Molecules, 2021).
Where two headings read alike, the source gives them in different places.

Biological target: T1, EC-LigA (Escherichia coli DNA ligase LigA) (Escherichia coli, UniProt P15042)
T1 construct: purchased NEB
Assay: in vitro ligase assay (nicked DNA substrate, denaturing PAGE)
Assay type: biochemical
Conditions: for inhibition of EC-LigA (result in words): concentrations up to 3333 µM; for extent of inhibition reached (complete or partial): highest concentration tested 3333 µM; for extent of ligation in the presence of small molecule: at all small molecule concentrations tested (up to 3333 µM), about 50% ligation without small molecule
Protocol: A 50 bp nicked DNA substrate was designed and prepared by annealing a 5′ hexachlorofluorescein (HEX) labelled, 3′ hydroxyl 20 nt single stranded oligonucleotide (20Top) and an unlabelled, 5′ phosphate 30 nt single stranded oligonucleotide (30Top) to a complementary unlabelled 50 nt single stranded oligonucleotide (50Bot) (Figure 4A). Incubation of this nicked DNA substrate with EC-LigA in the presence of NAD^+ cofactor should lead to phosphodiester bond formation between the 3′ hydroxyl of 20Top and the 5′ phosphate of 30Top to produce a 50 bp double stranded DNA product. The ligation reaction can be evaluated by resolving the 50 nt 5′ HEX labelled single stranded DNA and the 20 nt 5′ HEX labelled 20Top single stranded DNA by denaturing polyacrylamide gel electrophoresis (PAGE). The inhibitory activity of small molecules on EC-LigA activity can then be assessed by comparing the extent of ligation (the percentage of 50 nt 5′ HEX labelled single stranded DNA produced) in the absence of small molecule to the extent of ligation in the presence of small molecule. Small molecule inhibitors of EC-LigA will reduce the percentage of 50 nt 5′ HEX labelled single stranded DNA produced.
Figure 4 In vitro screening of candidate EC-LigA small molecule inhibitors. (A) A schematic of the in vitro ligation assay. A 50 bp nicked DNA substrate was prepared by annealing a 5′ hexachlorofluorescein (HEX) labelled, 3′ hydroxyl 20 nt single stranded oligonucleotide (20Top, blue) and an unlabelled, 5′ phosphate 30 nt single stranded oligonucleotide (30Top) to a complementary unlabelled 50 nt single stranded oligonucleotide (50Bot). Subsequent ligation of 20Top and 30Top, by EC-LigA produced a 50 bp double stranded DNA product comprising 5′ HEX labelled 50 nt DNA (50Top, green) and the complementary unlabelled 50 nt DNA 50Bot. (B) Representative 10% (w/v) denaturing PAGE of in vitro ligase assays performed with 120 nM nicked DNA substrate, 30 nM EC-LigA and 26 µM NAD^+ in reaction buffer (30 mM Tris HCl, pH 8.0, 4 mM MgCl2, 1 mM DTT, and 50 µg/mL BSA) in the presence of increasing concentrations of geneticin (0–3333 µM) or chlorhexidine (0–3333 µM) at room temperature for 5 min. Blue and green triangles mark the HEX labelled 20Top (substrate) and 50Top (product) DNA species, respectively. Gels were quantitated using ImageJ and the mean percentage 50Top DNA product was plotted against small molecule concentration. Error bars represent the standard error of the mean for a minimum of two experimental repeats. […] (D) As for (B) but for increasing concentrations of 5-azacytidine (0–3333 µM) or imidazo[1,2-a]pyridine-7-C (0–3333 µM). (E) As for (B) but for increasing concentrations of bestatin (0–3333 µM) or 2-(aminomethyl)imidazole (0–3333 µM).
Quenched reactions were heat-denatured at 100°C for 3 min and placed on ice. Reaction products were resolved by 10% (w/v) denaturing PAGE (10% (w/v) polyacrylamide gels containing 20% formamide and 7 M urea). Inclusion of formamide in the polyacrylamide gels aided maintenance of single-stranded species during electrophoresis. Gels were visualised using a fluorescence-imager (Fuji FLA-5000) using an excitation wavelength of 532 nm. Digitised images were quantitated using ImageJ software (NIH) and the percentage of 20Top (substrate) and 50Top (product) in each lane was calculated. Data were fit to a three-parameter IC50 inhibition function: y=Ymax/1+(x/IC50)^n
In this equation, y is the percentage of 50Top (product) at small molecule inhibitor concentration x; Ymax is the theoretical maximal percentage of 50Top (product) that can be formed, IC50 is the concentration of small molecule inhibitor at half Ymax, and n is the Hill slope factor.

[1] = 120 nM nicked DNA, 30 nM EC-LigA, 26 µM NAD+, room temperature, 5 min, three-parameter fit, read-out: IC50

T1 sequence (P15042 whole entry): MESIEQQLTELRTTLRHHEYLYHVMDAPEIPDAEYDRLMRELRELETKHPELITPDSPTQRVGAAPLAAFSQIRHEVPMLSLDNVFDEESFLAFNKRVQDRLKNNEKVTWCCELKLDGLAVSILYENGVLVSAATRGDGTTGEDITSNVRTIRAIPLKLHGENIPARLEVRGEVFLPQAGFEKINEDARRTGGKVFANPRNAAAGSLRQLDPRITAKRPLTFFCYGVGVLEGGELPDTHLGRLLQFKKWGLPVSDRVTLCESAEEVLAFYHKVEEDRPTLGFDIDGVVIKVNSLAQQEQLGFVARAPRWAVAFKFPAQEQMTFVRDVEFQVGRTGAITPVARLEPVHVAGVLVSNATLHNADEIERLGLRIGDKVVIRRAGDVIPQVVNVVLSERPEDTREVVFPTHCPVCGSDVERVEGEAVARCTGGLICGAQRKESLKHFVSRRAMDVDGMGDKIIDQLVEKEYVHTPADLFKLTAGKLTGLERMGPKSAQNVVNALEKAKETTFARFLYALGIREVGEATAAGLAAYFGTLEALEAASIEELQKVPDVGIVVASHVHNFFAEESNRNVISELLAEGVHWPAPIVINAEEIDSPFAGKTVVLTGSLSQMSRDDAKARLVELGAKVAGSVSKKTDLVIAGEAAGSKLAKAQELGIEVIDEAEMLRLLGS

SMILES | IC50 [1] | IC50 (apparent IC50, read-out: IC50) | inhibition of EC-LigA (result in words) | extent of inhibition reached (complete or partial) | extent of ligation in the presence of small molecule | IC50 (IC50, 120 nM nicked DNA, 30 nM EC-LigA, 26 µM NAD+, room temperature, 5 min, three-parameter fit) | IC50 (IC50, as stated in the text, apparent IC50)
NCc1ncc[nH]1 [2-(aminomethyl)imidazole] | 872 ± 248 µM | 870 µM | inhibited the ligation reaction in a dose-dependent manner | inhibition was only partial |  |  | 
Nc1ncn([C@@H]2O[C@H](CO)[C@@H](O)[C@H]2O)c(=O)n1 [5-azacytidine, reference compound] |  |  | do not inhibit EC-LigA |  | approximately 50% |  | 
[H]/N=C(\N/C(=N/[H])NCCCCCCNC(=N)NC(=N)Nc1ccc(Cl)cc1)Nc1ccc(Cl)cc1 [Chlorhexidine, chlorhexidine, reference compound] | 11 µM |  | inhibited the ligation reaction in a dose-dependent manner | Complete inhibition of ligation was observed |  |  | 
CN[C@@H]1[C@@H](O)[C@@H](O[C@@H]2[C@@H](O)[C@H](O[C@H]3O[C@H]([C@@H](C)O)[C@@H](O)[C@H](O)[C@H]3N)[C@@H](N)C[C@H]2N)OC[C@]1(C)O [Geneticin, geneticin, reference compound] | 2600 ± 85.4 µM |  | inhibited the ligation reaction in a dose-dependent manner | Complete inhibition of ligation was observed |  |  | 
N[C@@H](CCC(=O)N[C@@H](CS)C(=O)NCC(=O)O)C(=O)O [Glutathione, glutathione] |  |  | inhibited the ligation reaction in a dose-dependent manner | Complete inhibition of ligation was observed |  | 1523 ± 10.1 µM | 1520 µM
O=C(NCNC(=O)NC1C(=O)NC(=O)N1CO)NC1C(=O)NC(=O)N1CO (centres unmarked) [Imidazolidinyl urea, imidazolidinyl urea] | 38.5 µM |  | inhibited the ligation reaction in a dose-dependent manner | Complete inhibition of ligation was observed |  |  | 
CC(C)C[C@H](NC(=O)[C@@H](O)[C@H](N)Cc1ccccc1)C(=O)O [bestatin, reference compound] |  |  | do not inhibit EC-LigA |  | approximately 50% |  | 
O=C(O)c1ccn2ccnc2c1 [imidazo[1,2-a]pyridine-7-C, imidazo[1,2-a]pyridine-7-carboxylic acid] |  |  | do not inhibit EC-LigA |  | approximately 50% |  | 
